AC50, EC50 and CC50 data for 50 compounds are collected here from ChEMBL document CHEMBL1201862, “PubChem BioAssay data set” (2004).

Calls of active or inactive are those of the source. Some results are limits rather than exact numbers.

In one data set the target is Cytochrome P450 3A4 (Homo sapiens, UniProt P08684).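 Further: CYP3A4 tested as one member of a cytochrome P450 panel screen.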
For the next data set, the target named is Cytochrome P450 2C9 (Homo sapiens, UniProt P11712).
The target in a further data set is Cytochrome P450 2C19 (Homo sapiens, UniProt P33261). The data set is described as follows: Cytochrome panel assay with activity outcomes. Panel member name: p450-cyp2c19 Compounds with AC50 equal or less than 10 uM are considered active. The class given is functional.
Cytochrome P450 2C19, sequence (P33261 whole entry): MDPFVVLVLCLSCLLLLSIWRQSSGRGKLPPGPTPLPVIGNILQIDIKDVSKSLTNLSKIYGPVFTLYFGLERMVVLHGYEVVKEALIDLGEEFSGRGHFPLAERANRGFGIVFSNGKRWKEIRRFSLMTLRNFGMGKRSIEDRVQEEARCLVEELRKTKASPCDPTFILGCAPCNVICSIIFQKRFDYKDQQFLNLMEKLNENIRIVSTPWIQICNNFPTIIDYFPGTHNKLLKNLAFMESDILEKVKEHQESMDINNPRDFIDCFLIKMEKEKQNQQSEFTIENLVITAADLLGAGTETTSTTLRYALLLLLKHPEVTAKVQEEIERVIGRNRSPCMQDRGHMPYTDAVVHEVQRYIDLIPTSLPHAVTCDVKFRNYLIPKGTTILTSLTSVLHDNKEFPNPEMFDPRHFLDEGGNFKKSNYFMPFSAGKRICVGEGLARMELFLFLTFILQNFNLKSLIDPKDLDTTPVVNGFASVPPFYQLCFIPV
Data set [1] can be described thus: NIH3T3 cell viability loss – ATP luminescence, mouse fibroblasts, counter-screen, dose response (AID 2010).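 Further: cells exposed to compound for about 90 hours before reading.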 The class given is functional, cell-based. (In general: A counterscreen serves to expose hits that act by an unwanted route or on another target.)
The nature of data set [2]: Trypanosoma cruzi growth suppression in host cells – NIH3T3 host cells, beta-gal luminescence, confirmation (AID 2044).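 Further: intracellular parasites grown in NIH/3T3 mouse fibroblasts as host cells; luminescent beta-galactosidase reporter signal from transgenic T. cruzi replicating inside host cells; inhibitors lower the luminescence signal.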 Format: functional, cell-based.
Data set [3] can be described thus: viability of uninfected HEp-2 cells – cell-based, HTS, cytotoxicity control for RSV inhibitor project, dose response (AID 2410). Format: functional. To be noted: human respiratory syncytial virus.

Cytochrome P450 3A4, sequence (P08684 whole entry): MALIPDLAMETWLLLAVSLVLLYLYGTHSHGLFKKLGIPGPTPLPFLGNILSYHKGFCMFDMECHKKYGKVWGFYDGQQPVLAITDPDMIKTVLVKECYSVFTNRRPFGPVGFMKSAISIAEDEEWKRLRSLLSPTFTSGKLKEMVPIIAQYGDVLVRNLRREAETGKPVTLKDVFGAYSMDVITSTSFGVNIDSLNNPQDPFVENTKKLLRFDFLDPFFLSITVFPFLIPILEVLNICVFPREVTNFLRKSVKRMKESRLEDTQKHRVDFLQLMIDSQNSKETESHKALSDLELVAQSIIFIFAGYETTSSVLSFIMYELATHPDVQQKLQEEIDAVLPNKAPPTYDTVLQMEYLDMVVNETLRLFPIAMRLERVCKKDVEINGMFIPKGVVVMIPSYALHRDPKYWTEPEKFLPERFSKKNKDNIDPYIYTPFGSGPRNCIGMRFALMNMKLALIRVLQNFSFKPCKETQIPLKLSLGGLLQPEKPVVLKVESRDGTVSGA
Cytochrome P450 2C9, sequence (P11712 whole entry): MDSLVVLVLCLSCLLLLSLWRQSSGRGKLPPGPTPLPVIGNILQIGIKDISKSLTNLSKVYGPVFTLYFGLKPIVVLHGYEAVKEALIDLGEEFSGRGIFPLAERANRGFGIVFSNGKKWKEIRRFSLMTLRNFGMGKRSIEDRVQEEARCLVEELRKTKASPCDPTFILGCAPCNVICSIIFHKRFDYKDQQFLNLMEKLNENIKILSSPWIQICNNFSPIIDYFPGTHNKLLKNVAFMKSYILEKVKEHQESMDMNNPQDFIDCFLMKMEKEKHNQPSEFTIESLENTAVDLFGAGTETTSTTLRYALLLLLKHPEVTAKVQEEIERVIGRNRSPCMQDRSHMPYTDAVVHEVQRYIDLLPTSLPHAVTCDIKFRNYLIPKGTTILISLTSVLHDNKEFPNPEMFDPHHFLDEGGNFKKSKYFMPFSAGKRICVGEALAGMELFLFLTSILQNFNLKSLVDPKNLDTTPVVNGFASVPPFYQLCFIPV

As a reminder, the AC50 is the concentration giving half of the maximal activity seen. With `CC(C)COP(=O)(c1ccc(N(C)C)cc1)C(O)c1ccccc1F` (stereo unspecified), the AC50 was 3.98 µM (inconclusive) at Cytochrome P450 3A4 and 12.6 µM (inconclusive) on Cytochrome P450 2C9.

Take `CCOC(=O)[C@@H](O)Cc1cnc2ccccc2n1`: the concentration at half-maximal activity (AC50) on Cytochrome P450 2C9 was 3.98 µM (inconclusive).

With `CCOC(=O)c1nnn(-c2nonc2N)c1-c1ccccc1`, the concentration at half-maximal activity (AC50) on Cytochrome P450 2C9 is 10 µM (inconclusive).

`N#C/C(=C\c1ccc(Oc2ccc(C(F)(F)F)cc2[N+](=O)[O-])cc1)c1nc2ccccc2[nH]1`: the AC50 on Cytochrome P450 3A4 is 11.2 µM (inconclusive).

`O=C(O)C(Cc1cccs1)C(=O)O`: the half-maximal activity concentration (AC50) entry at Cytochrome P450 2C19 is reported as “inconclusive”.

Take `FC(F)(F)c1cnc(N2CCC(=NOCc3ccc(Cl)cc3)CC2)c(Cl)c1`: the half-maximal activity concentration (AC50) at Cytochrome P450 2C19 (read-out: AC50) was 20 µM (inconclusive).

By EC50 is commonly meant the midpoint of the concentration-response curve. In the case of `Clc1ccc(OCCOCCN2CCCCC2)c(Br)c1`, the values for the EC50 in data set [1] and in data set [2] were 13.2 µM (active) and 0.166 µM (active), respectively.

As for `CCCn1cnc2c(SCC(=O)O)nc(N)nc21`, the AC50 entry on Cytochrome P450 2C19 is “inconclusive”.

As to `COC(=O)[C@@]1(Cc2ccc(OC)cc2)[C@H]2c3cc(C(=O)N4CCCC4)n(Cc4ccc(OC(F)(F)F)cc4)c3C[C@H]2CN1C(=O)c1ccccc1`, the AC50 at Cytochrome P450 2C19 (read-out: AC50) is 7.94 µM (inconclusive).

Regarding `CC(C)=CCC/C(C)=C/CO/N=C1/[C@H]2O[C@@H]2[C@@H](O)[C@H]2[C@H]1CCn1c(=O)n(Cc3cc4c(cc3Cl)OCO4)c(=O)n12`, on Cytochrome P450 3A4, the concentration at half-maximal activity (AC50) was 3.98 µM (inconclusive).

For the compound `Cc1sc2nc(SCC(=O)C(C)(C)C)n(Cc3ccco3)c(=O)c2c1C`, the concentration at half-maximal activity (AC50) on Cytochrome P450 2C19 (read-out: AC50) was 5.01 µM (inconclusive).

Turning to `CCOC(=O)CSc1cc(C(F)(F)F)nc(-c2ccccn2)n1`, the half-maximal activity concentration (AC50) on Cytochrome P450 2C19 (read-out: AC50) was 17.8 µM (inconclusive); on Cytochrome P450 2C9 it was 39.8 µM (inconclusive).

As to `CCN1CCN(c2ccc(S(=O)(=O)N3CCOCC3)cc2NC(=O)CCC(C)C)CC1`, the half-maximal effective concentration (EC50) in data set [1] is > 60 µM (not active); in data set [2], 1.34 µM (active).

With `CCOc1cc(NC(=O)c2cccc(C)c2)c(OCC)cc1N=C(S)NCC1CCCO1` (stereo unspecified), the AC50 on Cytochrome P450 2C9 was 7.94 µM (inconclusive).

Regarding `C=C(Br)CN(C)CC(=C)Br`, on Cytochrome P450 2C19, the AC50 entry is “inconclusive”.

For the compound `COCCn1c(=O)c(CCc2ccccc2)nc2cnc(OC)nc21`, the AC50 on Cytochrome P450 2C9 was 20 µM (inconclusive).

A word on the CC50: it is the concentration that lowers cell viability or growth by half. Consider `Cc1cccc2cc(CN(Cc3nnnn3Cc3ccco3)C3CCCC3)c3nnnn3c12`, for which the CC50 in data set [3] was > 50 µM (active).

For `O=S(=O)(c1ccc(Cl)cc1)N1CCN(C2CCN(Cc3ccccc3)CC2)CC1`, the figures for the 50% effective concentration (EC50) in data set [1] and in data set [2] were > 60 µM (not active) and 1.07 µM (active), respectively.

As to `ON(CCc1ccccn1)Cc1ccccc1`, the AC50 at Cytochrome P450 3A4 was 3.98 µM (inconclusive).

Turning to `CN(CCc1ccccn1)Cc1ccc(Cl)cc1Cl`, at Cytochrome P450 2C9, the AC50 is 6.31 µM (inconclusive).

Turning to `Cc1ccc(C2CC(c3cccs3)=NN2C(=O)CSc2nc3ccccc3o2)cc1` (stereo unspecified), the CC50 in data set [3] is 30.2 µM (active).

As for `CC(Oc1ccc(-c2ccccc2)c(F)c1)c1ccn(S(=O)(=O)c2ccc(Cl)cc2)n1` (stereo unspecified), the half-maximal activity concentration (AC50) on Cytochrome P450 3A4 is 15.8 µM (inconclusive).

Consider `COc1ccc2c(=O)cc(-c3ccncc3)oc2c1OC`, for which, on Cytochrome P450 3A4, the AC50 was 3.98 µM (inconclusive).

On to `Cc1cc(C(=O)N2CCc3c([nH]c4ccccc34)C2c2cccc(Cl)c2)nn1C` (stereo unspecified), for which the EC50 was > 60 µM (not active) in data set [1] and 2.17 µM (active) in data set [2].

For the compound `C=CCOc1cccc(CNn2cnnc2S)c1`, the results for the AC50 at Cytochrome P450 3A4 and on Cytochrome P450 2C9 were 28.2 µM (inconclusive) and 6.31 µM (inconclusive), respectively.

Regarding `COc1ccc(C)cc1Nc1n[n+](-c2ccccc2)c(-c2cccc(Cl)c2Cl)s1`, the EC50 in data set [1] is 15.4 µM (active); in data set [2], 3 µM (active).

As to `Cc1ccc(C(=O)N2C3C=CC(C3)C2(C(F)(F)F)C(F)(F)F)cc1` (stereo unspecified), the AC50 on Cytochrome P450 2C9 is 39.8 µM (inconclusive).

For `COc1cccc(-c2nc(CS(=O)(=O)CC(=O)NCCCOC(C)C)c(C)o2)c1`, the half-maximal activity concentration (AC50) was 17.8 µM (inconclusive) at Cytochrome P450 2C19 (read-out: AC50) and 11.2 µM (inconclusive) on Cytochrome P450 2C9.

For the compound `Cc1ccc(S(=O)(=O)NCC(=O)N(CC(=O)NCc2ccco2)Cc2cccs2)cc1`, the AC50 at Cytochrome P450 2C9 is 15.8 µM (inconclusive).

For `CCOc1ccc(N/C(C)=C/C(=O)c2ccc(C)o2)cc1`, the concentration for a half-maximal effect (EC50) was > 60 µM (not active) in data set [1] and 2.98 µM (active) in data set [2].

In the case of `OCCC1CN(Cc2cccc(C(F)(F)F)c2)CCN1Cc1ccccc1` (stereo unspecified), the EC50 is > 60 µM (inconclusive) in data set [1] and 1.33 µM (active) in data set [2].

As to `CCN1CCN(CC(=O)Nc2ccc(S(=O)(=O)N3C(C)CCCC3C)cc2)CC1` (stereo unspecified), the results for the EC50 in data set [1] and in data set [2] were > 60 µM (not active) and 1.07 µM (active), respectively.

Take `COC(=O)c1cc(NC(=O)c2cc(-c3ccc(Cl)cc3)oc2C(F)(F)F)ccc1N1CCOCC1`: the figures for the EC50 in data set [1] and in data set [2] were > 60 µM (not active) and 3.3 µM (active), respectively.

Take `C[C@@H]1O[C@H](O[C@@H]2CC[C@@]3(C=O)[C@H]4CC[C@@]5(C)[C@@H](C6=CC(=O)OC6)CC[C@@]5(O)[C@@H]4CC[C@]3(O)C2)C[C@H](O)[C@@H]1O`: the AC50 on Cytochrome P450 3A4 is 15.8 µM (inconclusive).

In the case of `Oc1ccc2c3c1O[C@H]1c4oc5ccccc5c4C[C@]4(O)[C@H](C2)N(CC2CC2)CC[C@@]314`, the AC50 on Cytochrome P450 3A4 is 20 µM (inconclusive).

`CC(=O)N1CCC2(CC1)CN(c1ccccc1)C2`: at Cytochrome P450 2C19, the half-maximal activity concentration (AC50) entry is “inconclusive”.

In the case of `CCCCCOc1ccc(C(=O)NCC2(c3ccccc3)CCOCC2)cc1`, the concentration at half-maximal activity (AC50) on Cytochrome P450 3A4 was 31.6 µM (inconclusive).

For `C=CCn1c(SCC(=O)NC2CCCCC2)nnc1C1CCCCC1`, the results for the AC50 entry at Cytochrome P450 2C19 and on Cytochrome P450 2C9 were “inconclusive” and 28.2 µM (inconclusive), respectively.

Turning to `COc1ccc2cc(S(=O)(=O)n3cnc(C)c3)ccc2c1`, the CC50 in data set [3] is > 50 µM (active).

Consider `COc1c(N2CCN(C(=S)Nc3ccc(F)cc3)C(C)C2)c(F)cc2c(=O)c(C(=O)O)cn(C3CC3)c12` (stereo unspecified), for which the AC50 at Cytochrome P450 2C19 (read-out: AC50) is 39.8 µM (inconclusive).

Take `CCOc1ccccc1NC(=O)CSc1nc2c(c(=O)n1C)SC(C)C2` (stereo unspecified): in data set [3], the cytotoxic concentration (CC50) was 35.2 µM (active).

`O=C(Cn1ccnc1)c1ccc(Cl)cc1`: the EC50 in data set [1] and in data set [2] was > 30 µM (not active) each time.

As to `CCNC(=Nc1ccc(Cl)cc1)c1cccnc1`, the AC50 is 1.78 µM (inconclusive) on Cytochrome P450 2C19 (read-out: AC50) and 22.4 µM (inconclusive) on Cytochrome P450 3A4.

`N=C(N)N/N=C/c1ccc(Cl)c([N+](=O)[O-])c1`: the EC50 is > 60 µM (not active) in data set [1] and 0.108 µM (active) in data set [2].

For the compound `CCCCCCCCCCCCCC(=O)O[C@H]1[C@@H](C)[C@@]2(O)[C@@H](C=C(CO)C[C@]3(O)C(=O)C(C)=C[C@@H]23)C2C(C)(C)[C@]21OC(C)=O` (stereo partly specified), on Cytochrome P450 2C9, the AC50 is 10 µM (inconclusive).

Consider `COc1cccc(/N=C/c2c[nH]nc2O)c1`, for which the concentration at half-maximal activity (AC50) was 35.5 µM (inconclusive) at Cytochrome P450 2C19 (read-out: AC50) and 20 µM (inconclusive) at Cytochrome P450 2C9.

Regarding `Oc1ccccc1/N=C/c1c[nH]nc1O`, the AC50 entry at Cytochrome P450 2C19 was “inconclusive”; at Cytochrome P450 2C9 it was 8.91 µM (inconclusive).

Consider `c1ccc(Nc2nc(-c3ccncc3)cs2)nc1`, for which the 50% effective concentration (EC50) in data set [1] was > 60 µM (not active); in data set [2] it was 0.526 µM (active).

Take `Cc1nc(N2CCC(C)CC2)c2c(C)c(C(=O)Nc3ccc(C(F)(F)F)cc3)sc2n1`: the 50% effective concentration (EC50) in data set [1] was > 60 µM (inconclusive); in data set [2] it was 1.41 µM (active).

As to `N#Cc1ccc(C(c2ccc(C#N)cc2)n2cncn2)cc1` [LETROZOLE], on Cytochrome P450 2C19 (read-out: AC50), the AC50 was 7.94 µM (inconclusive).
